From PMC10754118, “Lipophilic Nucleoside Triphosphate Prodrugs of Anti‐HIV Active Nucleoside Analogs as Potential Antiviral Compounds” (Advanced Science, 2023)

Tests used:
HIV‐RT = biological target: T1, HIV‐RT (Human immunodeficiency virus type 1 group M subtype B, UniProt P03366); set-up: method as in PMID 37647547; details: cited from earlier work
T1 construct: HIV reverse transcriptase (HIV‐RT); purchased Roboklon

HIV‐1 [HE] = assay: Anti-HIV activity, HIV-1 in wild-type CEM/0 cells; format: cell-based; details: wild-type CEM/0 cells, mean ±SD n = 2–3; read-out: Antiviral activity CEM/0 HIV‐1 [HE] EC50
CEM/0 = assay: in vitro; details: read-out: Toxicity CEM/0 CC50; 50% cytostatic concentration, CEM proliferation
Protocol: All TriPPPro‐compounds 10 and 20, as well as their parent nucleosides and the corresponding NTPs, were evaluated for their antiviral activity (expressed as EC50 values) against HIV‐1 (wild‐type CEM/0 cells) and HIV‐2 (wild‐type CEM/0 cells and thymidine kinase‐deficient (CEM/TK^−) cells) with concomitant determination of cytotoxicity in the same cell line (Table 3 ).

HIV‐2 [ROD)] = assay: Anti-HIV activity, HIV-2 in thymidine kinase-deficient CEM/TK^− cells; format: cell-based; details: thymidine kinase-deficient CEM/TK^− cells, mean ±SD n = 2–3; read-out: Antiviral activity CEM/TK^− HIV‐2 [ROD)] EC50
HIV‐2 [ROD] = assay: Anti-HIV activity, HIV-2 in wild-type CEM/0 cells; format: cell-based; details: wild-type CEM/0 cells, mean ±SD n = 2–3; read-out: Antiviral activity CEM/0 HIV‐2 [ROD] EC50

EC50 (HIV‐1 [HE]) [µM] | EC50 (HIV‐2 [ROD)]) [µM] | EC50 (HIV‐2 [ROD]) [µM] | Structure (SMILES) | accepted by HIV‐RT as a substrate (HIV‐RT) | CC50 (CEM/0) [µM]
 |  |  | Cc1cn([C@H]2C=C[C@@H](COP(=O)(O)OP(=O)(O)O)O2)c(=O)[nH]c1=O [d4TDP] | accepted | 
1.85 ± 2.14 | 0.85 ± 0.4 | 1.02 ± 0.13 | Nc1nc(NC2CC2)c2ncn([C@H]3C=C[C@@H](COP(=O)(O)OP(=O)(O)OP(=O)(O)O)C3)c2n1 [ABCTP, reference compound] |  | > 100
 |  |  | Cc1cn([C@H]2C=C[C@@H](COP(=O)(O)OP(=O)(O)OP(=O)(O)O)O2)c(=O)[nH]c1=O [d4TTP] | accepted | 
0.15 ± 0.13 | 35.4 ± 43.9 | 0.26 ± 0.32 | O=c1ccn([C@H]2C[C@H](F)[C@@H](COP(=O)(O)OP(=O)(O)OP(=O)(O)O)O2)c(=O)[nH]1 [FddUTP, reference compound] |  | > 100
